The numbers were not newly measured in US6086919A, “Pharmaceutical composition containing the ace inhibitor ramipril and a dihydropyridine compound” (priority 1994, dated 2000), which cites them from elsewhere.

Series [1] relates to hypertensive patients; patients with clinical signs of congestive heart failure.
In series [2] the test system is vasodilatory effect. The note with it: in words.

Turning to `CCOC(=O)[C@H](CCc1ccccc1)N[C@@H](C)C(=O)N1[C@H](C(=O)O)C[C@@H]2CCC[C@@H]21` [ramipril], the “Sensitivity of the substance” value (stability) is on record as “sensitive to high temperature, moisture or compression”. Further, the Mortality entry in series [1] (clinical signs of congestive heart failure after acute myocardial infarction) is “reduce mortality”. In addition, the “Reduction of blood pressure and peripheral arterial resistance” value in series [1] (hypertensive patients) was “reduction in peripheral arterial resistance and thus a reduction of the blood pressure without a compensatory rise in heart rate”. Consider `CCOC(=O)C1=C(C)NC(C)=C(C(=O)OC)[C@@H]1c1cccc(Cl)c1Cl` [S form], for which, in series [2], the “Vasodilatory effect compared with the R form” value is “stronger than the vasodilatory effect of the R form”. With `CCOC(=O)C1=C(C)NC(C)=C(C(=O)OC)C1c1cccc(Cl)c1Cl` (centres unmarked) [felodipine], where the note is “when exposed to light”, the Light stability entry is “decomposed when exposed to light”.
